Assay: Pharmacokinetic evaluation of liquid bevirimat dosage forms, oral gavage, male Cynomolgus monkeys
Conditions: male, cynomolgus monkey, in vivo, po; for concentration at 72 hr: BLOQ=below 50 ng/mL; for AUC: AUCall
Description: Six male Cynomolgus monkeys having an initial body weight of about 3.5 to about 4.5 kg are allowed 7 days to acclimate to their individual housing units. Monkeys are supplied with water and a commercial diet ad libitum prior to the study initiation. Food is withheld from the monkeys for a minimum of twelve hours before the study and during the study until four hours postdose when food is returned. Water is supplied ad libitum.
Test formulations are administered to the monkeys at time 0 on appropriate days. Test formulations will be dosed orally via oral gavage or intravenously.
Samples are drawn at the frequencies indicated below. Each blood sample (0.5 mL) is collected from the monkey's saphenous vein via a butterfly catheter and placed into a chilled polypropylene tube containing sodium heparin as the anticoagulant. Blood samples are centrifuged at a temperature of 4° C. at a speed of 3,000 rpm for 15 minutes. All samples are maintained chilled throughout processing. Plasma is collected after centrifugation, pipetted into a 2-mL polypropylene microtube, and frozen on dry-ice pending analytical evaluation.

[1] = 50 mg FAE/monkey, Plasma concentration, 12.5 mg FAE/mL in 10% HPβCD, 50 mg FAE/monkey oral gavage, monkeys 186,116,120,AVG
[2] = 50 mg FAE/monkey, Plasma concentration, 12.5 mg FAE/mL in 15% EtOH:0.5% TPGS:15% PG:5% Glycerin, 0.2% Povidone K90, 50 mg FAE/monkey oral gavage, monkeys 117,118,119,AVG
[3] = 50 mg FAE/monkey, Plasma concentration, 25 mg/mL in 30% EtOH:1% TPGS:30% PG:10% Glycerin, 50 mg FAE/monkey oral gavage, monkeys 117,118,119,AVG
[4] = 50 mg FAE/monkey, Plasma concentration, 50 mg FAE/mL in 40% EtOH:40% PG:20% Glycerol, 50 mg FAE/monkey oral gavage, monkeys 117,118,119,AVG
[5] = 50 mg, 12.5 mg FAE/mL in 10% HPβCD, 50 mg FAE/monkey oral gavage, monkeys 186,116,120,AVG
[6] = 50 mg, 12.5 mg FAE/mL in 15% EtOH:0.5% TPGS:15% PG:5% Glycerin, 0.2% Povidone K90, 50 mg FAE/monkey oral gavage, monkeys 117,118,119,AVG
[7] = 50 mg, 12.5 mg FAE/mL in 40% PG, 20% Glycerin, 0.25% Tween80, 0.2% Povidone K15, 50 mg FAE oral gavage, monkeys 186,116,120,AVG

C=C(C)[C@@H]1CC[C@]2(C(=O)O)CC[C@]3(C)[C@H](CC[C@@H]4[C@@]5(C)CC[C@H](OC(=O)CC(C)(C)C(=O)O)C(C)(C)[C@@H]5CC[C@]43C)[C@@H]12 [Bevirimat, 3-O-(3′,3′-dimethylsuccinyl)betulinic acid] gave a concentration at 2 hr [1] of 59200 ng/mL, a concentration at 2 hr [2] of 51300 ng/mL and a concentration at 2 hr [3] of 56700 ng/mL. The concentration at 2 hr [4] was 25800 ng/mL, the concentration at 2 hr (50 mg FAE/monkey, Plasma concentration, 50 mg FAE/mL in 40% PG:20% Glycerin:1% TPGS:5% Tween 80 in SWFI, 50 mg FAE/monkey oral gavage, monkeys 117,118,119,AVG) was 17900 ng/mL and the concentration at 4 hr [1] was 35000 ng/mL. For the same molecule, the concentration at 4 hr [2] was 33100 ng/mL, the concentration at 6 hr [1] was 20700 ng/mL and the concentration at 6 hr [2] was 23100 ng/mL. For the same molecule, the concentration at 8 hr (50 mg FAE/monkey, Plasma concentration, 8.0 hr, 12.5 mg FAE/mL in 10% HPβCD, 50 mg FAE/monkey oral gavage, monkeys 186,116,120,AVG) was 13000 ng/mL, the concentration at 24 hr (50 mg FAE/monkey, Plasma concentration, 24 hr, 12.5 mg FAE/mL in 10% HPβCD, 50 mg FAE/monkey oral gavage, monkeys 186,116,120,AVG) was 1560 ng/mL and the concentration at 72 hr [1] was 120 ng/mL. For the same molecule, the concentration at 72 hr (50 mg FAE/monkey, Plasma concentration, 12.5 mg FAE/mL in 15% EtOH:0.5% TPGS:15% PG:5% Glycerin, 50 mg FAE/monkey oral gavage, monkeys 117,118,119,AVG) was 233 ng/mL, the concentration at 72 hr [3] was 69.3 ng/mL and the concentration at 72 hr [4] was 76 ng/mL. The AUC [5] was 348 µg·h/mL, the AUC [6] was 488 µg·h/mL and the AUC [7] was 212 µg·h/mL. It also gave a Cmax [5] of 59200 ng/mL, a Cmax [6] of 51300 ng/mL and a Cmax (50 mg, 12.5 mg FAE/mL in 15% Ethanol, 30% PG, 10% Glycerin, 50 mg FAE oral gavage, monkeys 117,118,119,AVG) of 64100 ng/mL. It also gave a Cmax [7] of 42800 ng/mL, a Cmax (50 mg, 12.5 mg FAE/mL in 40% PG, 20% Glycerin, 1% TPGS, 0.25% Tween80, 0.2% Povidone K15, 50 mg FAE/monkey oral gavage, monkeys 117,118,119,AVG) of 93300 ng/mL and a Cmax (50 mg, 50 mg FAE/mL in 40% EtOH:40% PG:20% Glycerol, 50 mg FAE/monkey oral gavage, monkeys 117,118,119,AVG) of 25800 ng/mL. It also gave a Cmax (50 mg, 50 mg/monkey, PG/glycerin/Vitamin ETPGS/Tween80/Plasdone C15 formulation, AVG) of 62400 ng/mL, a Cmax (50 mg, 50 mg/monkey, PG/glycerin/Vitamin ETPGS/Tween80/Plasdone C15 formulation, individual monkey) of 55100 ng/mL and a Cmax (50 mg, 50 mg/monkey, PG/glycerin/Vitamin ETPGS/ethanol formulation, AVG) of 60100 ng/mL. For the same molecule, the Cmax (50 mg, 50 mg/monkey, PG/glycerin/Vitamin ETPGS/ethanol formulation, individual monkey) was 58900 ng/mL, the half-life (50 mg, t1/2, 12.5 mg FAE/mL in 10% HPβCD, 50 mg FAE/monkey oral gavage, monkeys 186,116,120,AVG) was 9.9 h and the half-life (50 mg, t1/2, 12.5 mg FAE/mL in 15% EtOH:0.5% TPGS:15% PG:5% Glycerin, 50 mg FAE/monkey oral gavage, monkeys 117,118,119,AVG) was 12 h. It also gave a half-life (50 mg, t1/2, 12.5 mg FAE/mL in 15% EtOH:0.5% TPGS:15% PG:5% Glycerin, 0.2% Povidone K90, 50 mg FAE/monkey oral gavage, monkeys 117,118,119,AVG) of 12.2 h, a half-life (50 mg, t1/2, 12.5 mg FAE/mL in 15% Ethanol, 30% PG, 10% Glycerin, 50 mg FAE oral gavage, monkeys 117,118,119,AVG) of 8.9 h and a half-life (50 mg, t1/2, 12.5 mg FAE/mL in 40% PG, 20% Glycerin, 0.25% Tween80, 0.2% Povidone K15, 50 mg FAE oral gavage, monkeys 186,116,120,AVG) of 8 h. It also gave a half-life (50 mg, t1/2, 12.5 mg FAE/mL in 40% PG, 20% Glycerin, 1% TPGS, 0.25% Tween80, 50 mg FAE/monkey oral gavage, monkeys 186,116,120,AVG) of 9.9 h, a half-life (50 mg, t1/2, 12.5 mg FAE/mL in 40% PG, 20% Glycerin, 1% TPGS, 0.25% Tween80, 0.2% Povidone K15, 50 mg FAE/monkey oral gavage, monkeys 117,118,119,AVG) of 10.4 h and a half-life (50 mg, t1/2, 25 mg/mL in 30% EtOH:1% TPGS:30% PG:10% Glycerin, 50 mg FAE/monkey oral gavage, monkeys 117,118,119,AVG) of 10.6 h. The half-life (50 mg, t1/2, 50 mg FAE/mL in 40% EtOH:40% PG:20% Glycerol, 50 mg FAE/monkey oral gavage, monkeys 117,118,119,AVG) was 9.8 h, the half-life (50 mg, t1/2, 50 mg FAE/mL in 40% PG:20% Glycerin:1% TPGS:5% Tween 80 in SWFI, 50 mg FAE/monkey oral gavage, monkeys 117,118,119,AVG) was 11.8 h and the half-life (50 mg, t1/2, 10% HPβCD, 50 mg FAE/monkey oral gavage, monkeys 117,118,119,AVG) was 10 h. For the same molecule, the half-life (50 mg, t1/2, oral, 50 mg/monkey, PG/glycerin/Vitamin ETPGS/Tween80/Plasdone C15 formulation, AVG) was 6.4 h, the half-life (50 mg, t1/2, oral, 50 mg/monkey, PG/glycerin/Vitamin ETPGS/Tween80/Plasdone C15 formulation, individual monkey) was 8.6 h and the half-life (50 mg, t1/2, oral, 50 mg/monkey, PG/glycerin/Vitamin ETPGS/ethanol formulation, AVG) was 6.9 h. The half-life (50 mg, t1/2, oral, 50 mg/monkey, PG/glycerin/Vitamin ETPGS/ethanol formulation, individual monkey) was 6.2 h, the Tmax (50 mg, tmax, 12.5 mg FAE/mL in 40% PG, 20% Glycerin, 1% TPGS, 0.25% Tween80, 0.2% NaCMC, 50 mg FAE/monkey oral gavage, monkeys 117,118,119,AVG) was 1 h and the concentration at 0.25 h (50 mg/monkey, Plasma Concentration, PG/glycerin/Vitamin ETPGS/Tween80/Plasdone C15 formulation, AVG) was 64.6 ng/mL. The concentration at 0.25 h (50 mg/monkey, Plasma Concentration, PG/glycerin/Vitamin ETPGS/Tween80/Plasdone C15 formulation, individual monkey) was 69.8 ng/mL and the concentration at 0.5 h (50 mg/monkey, Plasma Concentration, PG/glycerin/Vitamin ETPGS/Tween80/Plasdone C15 formulation, 0.50 hr, AVG) was 3550 ng/mL.
